Test results from US20260092083A1, “VANCOMYCIN DERIVATIVES WITH SIDEROPHORE MODIFICATION AS NOVEL REPURPOSED ANTIBIOTICS TO COMBAT GRAM-NEGATIVE BACTERIAL INFECTION” (priority 2023, published 2026).
In brackets after ≈: the same amount, converted by molar mass.

Experiments:
Assay type in all cases: cell-based
[1] = tested on: P. aeruginosa (multi-pump-gene mutant) PAM1626; assay: Broth microdilution MIC, P. aeruginosa efflux-deficient; details: Pseudomonas aeruginosa, read-out: MIC (μg/mL) Gram-negative PSA Efflux
Procedure: (§1) The test compounds including vancomycin hydrochloride were supplied as a 6.4 mg/mL solution in 100% dimethyl sulfoxide (DMSO) aliquoted into individual wells of a 96-well plate (50 μL per well). […] Standardized inocula were added to the MIC test plates, which were incubated for the prescribed times at 35° C. The N. gonorrhoeae strain was incubated in an atmosphere containing 5% CO2.
(§2) The final optical density of each well at 600 nm was measured using a Tecan Spark plate reader. The compound concentration versus OD600 data were then curve fit using custom software. An MIC value was defined as the lowest compound concentration that led to an OD600 value≤0.15 for the E. coli, K. pneumoniae, P. aeruginosa, A. baumannii, or S. aureus strains. For the N. gonorrhoeae strain, an OD600 value≤0.19 was used as a cutoff to define an MIC value; this higher cut-off value was required because the N. gonorrhoeae MIC plates were covered with plastic seals that increased the background OD600 value.
(§3) JMI Laboratories followed current CLSI quality assurance practices when performing the susceptibility tests. MIC values were validated by concurrently testing the CLSI-recommended ATCC QC reference strains S. aureus ATCC 29213 and K. pneumoniae ATCC 700603. The inoculum density during susceptibility testing was monitored by bacterial colony counts. Where applicable, QC ranges for tested reference strains were those ranges approved or published by CLSI for testing in CAMHB. […] Importantly, the CLSI reference method for testing N. gonorrhoeae is the agar dilution MIC method, which was not used here. Thus, CLSI MIC QC ranges for N. gonorrhoeae could not be applied to the antimicrobials studied here.
(§4) Abbreviations: EC, E. coli (wild-type) BW25113; EC efflux^−, E. coli (tolC) JW5503-1; KPN, K. pneumoniae ATCC 700603; PSA, P. aeruginosa PAO1; PSA efflux^−, P. aeruginosa (multi-pump-gene mutant) PAM1626; ACB, A. baumannii JMI #1186154; GC, N. gonorrhoeae WHO-Z; SA, S. aureus ATCC 29213. Broth microdilution MIC values were measured in iron-depleted CAMHB for all strains except for GC, which was tested in fastidious broth.

P. aeruginosa PAO1 = assay: Broth microdilution MIC, P. aeruginosa; details: Pseudomonas aeruginosa, iron-depleted CAMHB, OD600 ≤0.15, read-out: MIC (μg/mL) Gram-negative PSA
Procedure: as §1, §2, §3, §4

[2] = tested on: K. pneumoniae ATCC 700603; assay: Broth microdilution MIC, K. pneumoniae; details: Klebsiella pneumoniae, ATCC700603, read-out: MIC (μg/mL) Gram-negative KPN
Procedure: as §1, §2, §3, §4

[3] = tested on: A. baumannii JMI #1186154; assay: Broth microdilution MIC, A. baumannii; details: Acinetobacter baumannii, iron-depleted CAMHB, OD600 ≤0.15, read-out: MIC (μg/mL) Gram-negative ACB
Procedure: as §1, §2, §3, §4

[4] = tested on: E. coli (wild-type) BW25113; assay: Broth microdilution MIC, E. coli wild-type; details: Escherichia coli, iron-depleted CAMHB, OD600 ≤0.15, read-out: MIC (μg/mL) Gram-negative EC
Procedure: as §1, §2, §3, §4

S. aureus ATCC 29213 = assay: Broth microdilution MIC, S. aureus; details: Staphylococcus aureus, ATCC29213, iron-depleted CAMHB, OD600 ≤0.15, read-out: MIC (μg/mL) Gram positive SA
Procedure: as §1, §2, §3, §4

E. coli (tolC) JW5503-1 = assay: Broth microdilution MIC, E. coli efflux-deficient (tolC); details: Escherichia coli, read-out: MIC (μg/mL) Gram-negative EC Efflux
Procedure: as §1, §2, §3, §4

N. gonorrhoeae WHO-Z = assay: Broth microdilution MIC, N. gonorrhoeae; details: Neisseria gonorrhoeae, read-out: MIC (μg/mL) Gram-negative GC
Procedure: as §1, §2, §3, §4

Structure (SMILES) | MIC [1] [µg/mL] | MIC (P. aeruginosa PAO1) [µg/mL] | MIC [2] [µg/mL] | MIC [3] [µg/mL] | MIC [4] [µg/mL] | MIC (S. aureus ATCC 29213) [µg/mL] | MIC (E. coli (tolC) JW5503-1) [µg/mL] | MIC (N. gonorrhoeae WHO-Z) [µg/mL]
CNC(CC(C)C)C(=O)NC1C(=O)NC(CC(N)=O)C(=O)NC2C(=O)NC3C(=O)NC(C(=O)N[C@H](C(=O)O)c4cc(O)c(CNCCN[S@SP3](=O)(=O)c5ccc(O)c(O)c5)c(O)c4-c4cc3ccc4O)C(O)c3ccc(c(Cl)c3)Oc3cc2cc(c3OC2OC(CO)C(O)C(O)C2OC2CC(C)(N)C(O)C(C)O2)Oc2ccc(cc2Cl)C1O (stereo partly drawn) [Compound 25] | > 64 | > 64 | > 64 | 32 (≈ 18.9 µM) | 16 (≈ 9.45 µM) | 4 (≈ 2.36 µM) | 64 (≈ 37.8 µM) | > 64
CNC(CC(C)C)C(=O)NC1C(=O)NC(CC(N)=O)C(=O)NC2C(=O)NC3C(=O)NC(C(=O)N[C@H](C(=O)O)c4cc(O)c(CNCc5cn(CCCNC(=O)c6ccc(O)c(O)c6Cl)nn5)c(O)c4-c4cc3ccc4O)C(O)c3ccc(c(Cl)c3)Oc3cc2cc(c3OC2OC(CO)C(O)C(O)C2OC2CC(C)(N)C(O)C(C)O2)Oc2ccc(cc2Cl)C1O (stereo partly drawn) [Compound 27] | > 64 | > 64 | > 64 | 16 (≈ 8.95 µM) | 16 (≈ 8.95 µM) | 8 (≈ 4.48 µM) | 64 (≈ 35.8 µM) | > 64
CNC(CC(C)C)C(=O)NC1C(=O)NC(CC(N)=O)C(=O)NC2C(=O)NC3C(=O)NC(C(=O)N[C@H](C(=O)O)c4cc(O)cc(O)c4-c4cc3ccc4O)C(O)c3ccc(c(Cl)c3)Oc3cc2cc(c3OC2OC(CO)C(O)C(O)C2OC2CC(C)(NCCNC(=O)c3ccc(O)c(O)c3Cl)C(O)C(C)O2)Oc2ccc(cc2Cl)C1O (stereo partly drawn) [Compound 28] | > 64 | > 64 | > 64 | 32 (≈ 19.2 µM) | > 64 | 4 (≈ 2.41 µM) | > 64 | > 64
CC(C)C[C@H](C(=O)N[C@H]1C(=O)N[C@@H](CC(N)=O)C(=O)N[C@H]2C(=O)N[C@H]3C(=O)N[C@H](C(=O)N[C@H](C(=O)O)c4cc(O)cc(O)c4-c4cc3ccc4O)[C@H](O)c3ccc(c(Cl)c3)Oc3cc2cc(c3O[C@@H]2O[C@H](CO)C(O)C(O)[C@H]2O[C@H]2CC(C)(N)[C@H](O)[C@H](C)O2)Oc2ccc(cc2Cl)[C@H]1O)N(C)CCNC(=O)c1ccc(O)c(O)c1Cl (stereo partly drawn) [Compound 30] | > 64 | > 64 | > 64 | 32 (≈ 19.2 µM) | 64 (≈ 38.5 µM) | 4 (≈ 2.41 µM) | > 64 | > 64
CNC(CC(C)C)C(=O)NC1C(=O)NC(CC(N)=O)C(=O)NC2C(=O)NC3C(=O)NC(C(=O)N[C@H](C(=O)O)c4cc(O)cc(O)c4-c4cc3ccc4O)C(O)c3ccc(c(Cl)c3)Oc3cc2cc(c3OC2OC(CO)C(O)C(O)C2OC2CC(C)(NCCCc3cn(CCCNC(=O)c4ccc(O)c(O)c4Cl)nn3)C(O)C(C)O2)Oc2ccc(cc2Cl)C1O (stereo partly drawn) [Compound 31] | > 64 | > 64 | > 64 | 64 (≈ 35.8 µM) | > 64 | 8 (≈ 4.48 µM) | 32 (≈ 17.9 µM) | > 64
CC(C)CC(C(=O)NC1C(=O)NC(CC(N)=O)C(=O)NC2C(=O)NC3C(=O)NC(C(=O)N[C@H](C(=O)O)c4cc(O)cc(O)c4-c4cc3ccc4O)C(O)c3ccc(c(Cl)c3)Oc3cc2cc(c3OC2OC(CO)C(O)C(O)C2OC2CC(C)(N)C(O)C(C)O2)Oc2ccc(cc2Cl)C1O)N(C)CCCc1cn(CCCNC(=O)c2ccc(O)c(O)c2Cl)nn1 (stereo partly drawn) [Compound 32] | > 64 | > 64 | > 64 | 32 (≈ 17.9 µM) | > 64 | 32 (≈ 17.9 µM) | > 64 | > 64
